Data reported in ChEMBL document CHEMBL5042558, “Selective Macrocyclic Inhibitors of DYRK1A/B” (ACS Med Chem Lett, 2022).
Calls of active or inactive are those of the source. The calls are words filed in the database; no cut-off is given here.

Assays:
CAL-27 [1] = assay: Induction of apoptosis in human CAL-27 cells assessed as PARP level at 1 uM after 24 hrs by Immunoblot analysis relative to control; format: functional
CAL-27 [2] = assay: Induction of apoptosis in human CAL-27 cells assessed as BCL-xL level at 1 uM after 24 hrs by Immunoblot analysis relative to control; format: functional
CAL-27 [3] = assay: Induction of apoptosis in human CAL-27 cells assessed as increase in cleaved-PARP level at 1 uM after 24 hrs by Immunoblot analysis relative to control; format: functional
CAL-27 [4] = assay: Induction of apoptosis in human CAL-27 cells assessed as increase in cleaved-PARP level at 10 uM after 24 hrs by Immunoblot analysis relative to control; format: functional
CAL-27 [5] = assay: Induction of apoptosis in human CAL-27 cells assessed as PARP level at 10 uM after 24 hrs by Immunoblot analysis relative to control; format: functional
CAL-27 [6] = assay: Induction of apoptosis in human CAL-27 cells assessed as BCL-xL level at 10 uM after 24 hrs by Immunoblot analysis relative to control; format: functional
HEK-293T = assay: Antiproliferative activity against human HEK293T cells assessed as reduction in cell viability at 10 uM measured after 72 hrs by Celltiter-Glo luminescent assay; format: toxicity, cell-based
[7] = target: Myosin light chain kinase, smooth muscle (Homo sapiens, UniProt Q15746); assay: Inhibition of MYLK (unknown origin) at 1 uM by kinome scan method
[8] = AUC (0-infinity) in C57BL/6 mouse at 10 mg/kg, po measured upto 8 hrs by LC-MS/MS analysis; format: ADME, organism-based; set-up: route oral, dose 10 mg/kg, time <=8; conditions: mouse, in vivo, 8 h
[9] = Clearance in C57BL/6 mouse at 5 mg/kg, iv measured upto 8 hrs by LC-MS/MS analysis; format: ADME, organism-based; conditions: in vivo
[10] = Cmax in C57BL/6 mouse at 10 mg/kg, po measured upto 8 hrs by LC-MS/MS analysis; format: ADME, organism-based; set-up: route oral, dose 10 mg/kg, time <=8; conditions: in vivo
[11] = AUC (0-infinity) in C57BL/6 mouse at 5 mg/kg, iv measured upto 8 hrs by LC-MS/MS analysis; format: ADME, organism-based; set-up: route intravenous, dose 5 mg/kg, time <=8; conditions: in vivo
[12] = Half life in C57BL/6 mouse at 5 mg/kg, iv measured upto 8 hrs by LC-MS/MS analysis; format: ADME, organism-based; conditions: in vivo
[13] = Half life in C57BL/6 mouse at 10 mg/kg, po measured upto 8 hrs by LC-MS/MS analysis; format: ADME, organism-based; conditions: in vivo
[14] = Oral bioavailability in C57BL/6 mouse at 10 mg/kg measured upto 8 hrs by LC-MS/MS analysis; format: ADME, organism-based; conditions: mouse, in vivo, 10 mg/kg, 8 h
[15] = target: Receptor-type tyrosine-protein kinase FLT3 (Homo sapiens, UniProt P36888); assay: Inhibition of FLT3 (unknown origin) at 1 uM by kinome scan method
Sequence of Receptor-type tyrosine-protein kinase FLT3 (P36888 whole entry): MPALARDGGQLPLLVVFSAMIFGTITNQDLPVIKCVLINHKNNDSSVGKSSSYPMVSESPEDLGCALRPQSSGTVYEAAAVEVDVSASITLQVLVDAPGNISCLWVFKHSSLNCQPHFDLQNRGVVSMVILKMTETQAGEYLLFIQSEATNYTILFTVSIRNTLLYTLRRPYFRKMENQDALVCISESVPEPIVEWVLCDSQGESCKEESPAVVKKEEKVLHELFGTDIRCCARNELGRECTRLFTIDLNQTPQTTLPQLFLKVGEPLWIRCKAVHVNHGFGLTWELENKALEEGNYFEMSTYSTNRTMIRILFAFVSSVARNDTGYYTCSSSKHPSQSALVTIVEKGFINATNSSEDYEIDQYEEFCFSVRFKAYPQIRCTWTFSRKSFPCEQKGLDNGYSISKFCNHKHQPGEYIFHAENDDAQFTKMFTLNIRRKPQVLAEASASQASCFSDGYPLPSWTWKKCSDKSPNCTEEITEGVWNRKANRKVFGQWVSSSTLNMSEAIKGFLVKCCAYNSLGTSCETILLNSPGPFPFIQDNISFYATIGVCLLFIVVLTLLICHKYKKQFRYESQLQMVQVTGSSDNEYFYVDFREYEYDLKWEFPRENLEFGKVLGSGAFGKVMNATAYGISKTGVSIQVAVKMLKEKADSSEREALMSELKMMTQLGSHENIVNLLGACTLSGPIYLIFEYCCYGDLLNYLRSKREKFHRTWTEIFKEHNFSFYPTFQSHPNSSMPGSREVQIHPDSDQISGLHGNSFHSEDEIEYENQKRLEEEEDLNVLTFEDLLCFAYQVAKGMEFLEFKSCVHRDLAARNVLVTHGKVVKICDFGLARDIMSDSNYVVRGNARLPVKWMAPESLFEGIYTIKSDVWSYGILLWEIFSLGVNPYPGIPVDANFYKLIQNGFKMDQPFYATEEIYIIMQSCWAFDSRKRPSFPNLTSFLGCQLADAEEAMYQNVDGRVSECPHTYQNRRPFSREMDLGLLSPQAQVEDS

CAL-27 [16] = assay: Induction of apoptosis in human CAL-27 cells assessed as decrease in AKT phosphorylation at S473 residue at 1 uM after 24 hrs by Immunoblot analysis relative to control; format: functional; set-up: scale not given: the % may be the effect or the level left
CAL-27 [17] = assay: Induction of apoptosis in human CAL-27 cells assessed as decrease in AKT phosphorylation at S473 residue at 10 uM after 24 hrs by Immunoblot analysis relative to control; format: functional; set-up: scale not given: the % may be the effect or the level left
FaDu = assay: Antiproliferative activity against human FaDu cells assessed as reduction in cell viability at 10 uM measured after 72 hrs by Celltiter-Glo luminescent assay; format: functional
CAL-27 [18] = assay: Induction of apoptosis in human CAL-27 cells assessed as decrease in AKT phosphorylation at S473 residue at 5 uM after 24 hrs by Immunoblot analysis relative to control; format: functional; set-up: scale not given: the % may be the effect or the level left
CAL-27 [19] = assay: Induction of apoptosis in human CAL-27 cells assessed as decrease in AKT phosphorylation at S473 residue at 0.5 uM after 24 hrs by Immunoblot analysis relative to control; format: functional; set-up: scale not given: the % may be the effect or the level left
[20] = target: Serine/threonine-protein kinase ATR (Homo sapiens) (UniProt Q13535); assay: Inhibition of ATR (unknown origin) in human CAL-27 cells measured after 6 hrs by select screen kinase assay; format: cell-based
Sequence of Serine/threonine-protein kinase ATR (Homo sapiens) (Q13535 whole entry, looked up): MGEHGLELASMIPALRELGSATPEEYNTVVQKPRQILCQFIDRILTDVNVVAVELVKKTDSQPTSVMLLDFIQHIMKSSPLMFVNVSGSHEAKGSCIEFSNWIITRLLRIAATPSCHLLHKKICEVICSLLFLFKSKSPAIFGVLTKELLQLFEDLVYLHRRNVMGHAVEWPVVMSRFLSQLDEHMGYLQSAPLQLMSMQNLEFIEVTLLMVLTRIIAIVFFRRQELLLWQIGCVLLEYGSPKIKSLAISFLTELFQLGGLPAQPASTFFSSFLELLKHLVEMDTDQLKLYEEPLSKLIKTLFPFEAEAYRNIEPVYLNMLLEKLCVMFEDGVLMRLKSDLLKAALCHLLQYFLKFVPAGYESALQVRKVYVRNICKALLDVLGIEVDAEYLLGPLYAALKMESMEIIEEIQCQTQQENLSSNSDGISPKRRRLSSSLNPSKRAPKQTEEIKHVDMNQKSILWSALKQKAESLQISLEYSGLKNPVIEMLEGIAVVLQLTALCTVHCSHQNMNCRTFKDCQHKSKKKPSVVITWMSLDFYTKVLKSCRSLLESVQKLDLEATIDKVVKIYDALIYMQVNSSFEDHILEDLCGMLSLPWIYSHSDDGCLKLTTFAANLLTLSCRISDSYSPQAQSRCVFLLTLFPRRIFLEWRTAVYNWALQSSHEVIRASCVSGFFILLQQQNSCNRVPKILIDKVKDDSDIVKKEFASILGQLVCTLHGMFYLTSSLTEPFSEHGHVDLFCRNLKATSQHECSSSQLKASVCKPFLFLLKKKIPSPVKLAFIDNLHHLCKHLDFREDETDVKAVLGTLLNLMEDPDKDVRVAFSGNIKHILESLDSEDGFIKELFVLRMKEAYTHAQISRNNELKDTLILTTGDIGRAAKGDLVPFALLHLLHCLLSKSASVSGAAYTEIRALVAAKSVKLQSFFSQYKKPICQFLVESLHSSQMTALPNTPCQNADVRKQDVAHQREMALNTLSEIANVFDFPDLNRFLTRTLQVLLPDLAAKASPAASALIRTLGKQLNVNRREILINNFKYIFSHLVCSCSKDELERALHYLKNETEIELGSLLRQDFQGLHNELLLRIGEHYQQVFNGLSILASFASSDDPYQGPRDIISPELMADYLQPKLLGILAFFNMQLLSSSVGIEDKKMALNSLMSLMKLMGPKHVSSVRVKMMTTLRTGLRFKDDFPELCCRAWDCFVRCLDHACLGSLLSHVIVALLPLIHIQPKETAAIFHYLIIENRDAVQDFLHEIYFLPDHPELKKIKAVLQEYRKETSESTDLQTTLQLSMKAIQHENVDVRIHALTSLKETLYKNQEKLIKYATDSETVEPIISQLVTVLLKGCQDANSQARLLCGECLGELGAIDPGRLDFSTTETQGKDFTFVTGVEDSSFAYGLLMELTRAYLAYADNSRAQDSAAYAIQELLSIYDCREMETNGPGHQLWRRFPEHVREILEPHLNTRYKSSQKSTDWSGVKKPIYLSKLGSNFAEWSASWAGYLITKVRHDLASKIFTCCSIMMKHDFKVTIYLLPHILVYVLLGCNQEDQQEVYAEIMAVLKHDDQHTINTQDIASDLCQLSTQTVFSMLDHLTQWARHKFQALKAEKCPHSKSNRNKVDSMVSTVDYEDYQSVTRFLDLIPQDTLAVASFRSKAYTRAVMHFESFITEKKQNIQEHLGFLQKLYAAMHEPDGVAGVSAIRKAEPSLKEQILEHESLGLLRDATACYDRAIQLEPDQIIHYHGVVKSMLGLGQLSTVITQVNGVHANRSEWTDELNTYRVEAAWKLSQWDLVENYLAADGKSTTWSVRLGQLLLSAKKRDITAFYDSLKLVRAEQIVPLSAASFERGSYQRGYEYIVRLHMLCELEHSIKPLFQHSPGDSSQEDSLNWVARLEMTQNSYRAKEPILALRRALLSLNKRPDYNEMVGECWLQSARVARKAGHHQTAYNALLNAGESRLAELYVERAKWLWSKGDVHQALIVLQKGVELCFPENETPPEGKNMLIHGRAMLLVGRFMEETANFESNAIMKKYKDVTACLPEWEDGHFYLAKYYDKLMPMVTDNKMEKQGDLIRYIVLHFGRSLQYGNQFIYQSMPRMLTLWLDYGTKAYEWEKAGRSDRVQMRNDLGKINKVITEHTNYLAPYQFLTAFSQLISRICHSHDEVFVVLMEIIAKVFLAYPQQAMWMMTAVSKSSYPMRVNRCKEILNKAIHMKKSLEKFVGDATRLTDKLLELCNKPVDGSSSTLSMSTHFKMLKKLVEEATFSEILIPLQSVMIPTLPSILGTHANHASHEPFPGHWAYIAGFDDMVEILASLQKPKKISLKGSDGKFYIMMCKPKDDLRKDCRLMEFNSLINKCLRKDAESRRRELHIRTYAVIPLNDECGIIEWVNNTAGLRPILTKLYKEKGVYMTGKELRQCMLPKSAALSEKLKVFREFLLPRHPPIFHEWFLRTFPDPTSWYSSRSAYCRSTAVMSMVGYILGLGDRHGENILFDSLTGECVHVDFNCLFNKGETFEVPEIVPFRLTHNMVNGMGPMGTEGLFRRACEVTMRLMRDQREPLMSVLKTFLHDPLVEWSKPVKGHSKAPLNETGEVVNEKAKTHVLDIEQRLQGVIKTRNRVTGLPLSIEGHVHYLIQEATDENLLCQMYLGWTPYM

CAL-27 [21] = assay: Induction of apoptosis in human CAL-27 cells assessed as decrease in FOXO3A phosphorylation at serine 253 residue at 5 uM after 24 hrs by Immunoblot analysis relative to control; format: functional; set-up: scale not given: the % may be the effect or the level left
CAL-27 [22] = assay: Antiproliferative activity against human CAL-27 cells assessed as reduction in cell viability at 10 uM measured after 72 hrs by Celltiter-Glo luminescent assay; format: functional
CAL-27 [23] = assay: Induction of apoptosis in human CAL-27 cells assessed as decrease in FOXO3A phosphorylation at serine 253 residue at 0.5 uM after 24 hrs by Immunoblot analysis relative to control; format: functional; set-up: scale not given: the % may be the effect or the level left
CAL-27 [24] = assay: Induction of apoptosis in human CAL-27 cells assessed as decrease in FOXO3A phosphorylation at serine 253 residue at 10 uM after 24 hrs by Immunoblot analysis relative to control; format: functional; set-up: scale not given: the % may be the effect or the level left
CAL-27 [25] = assay: Induction of apoptosis in human CAL-27 cells assessed as decrease in FOXO3A phosphorylation at serine 253 residue at 1 uM after 24 hrs by Immunoblot analysis relative to control; format: functional; set-up: scale not given: the % may be the effect or the level left
[26] = target: T1, Dual specificity tyrosine-phosphorylation-regulated kinase 1B (Homo sapiens, UniProt Q9Y463); assay: Inhibition of DYRK1B (unknown origin) measured after 6 hrs in presence of ATP by Z'-LYTE assay
T1 sequence (Q9Y463 whole entry): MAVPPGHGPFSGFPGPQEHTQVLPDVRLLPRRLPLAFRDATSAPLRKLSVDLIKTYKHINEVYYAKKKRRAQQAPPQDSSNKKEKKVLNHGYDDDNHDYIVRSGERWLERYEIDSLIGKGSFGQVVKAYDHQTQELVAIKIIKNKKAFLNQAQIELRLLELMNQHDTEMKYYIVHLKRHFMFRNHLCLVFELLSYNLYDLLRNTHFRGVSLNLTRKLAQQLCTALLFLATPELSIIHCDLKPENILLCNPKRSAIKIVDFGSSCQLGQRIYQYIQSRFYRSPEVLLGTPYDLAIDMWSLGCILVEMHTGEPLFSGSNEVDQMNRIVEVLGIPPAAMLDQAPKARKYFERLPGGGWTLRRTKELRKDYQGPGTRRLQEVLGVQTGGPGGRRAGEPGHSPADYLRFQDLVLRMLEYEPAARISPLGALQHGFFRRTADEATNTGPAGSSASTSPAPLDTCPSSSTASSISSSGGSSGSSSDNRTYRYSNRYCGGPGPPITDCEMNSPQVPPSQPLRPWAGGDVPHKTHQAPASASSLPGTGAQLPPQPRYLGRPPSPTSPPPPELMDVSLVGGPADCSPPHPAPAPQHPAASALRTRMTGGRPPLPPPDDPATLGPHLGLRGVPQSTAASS

[27] = target: T1, Dual specificity tyrosine-phosphorylation-regulated kinase 1B; assay: Inhibition of DYRK1B (unknown origin) at 1 uM by kinomescan method

SMILES	Activity (CAL-27 [1]) [%]	Activity (CAL-27 [2]) [%]	Activity (CAL-27 [3]) [%]	Activity (CAL-27 [4]) [%]	Activity (CAL-27 [5]) [%]	Activity (CAL-27 [6]) [%]	Activity (HEK-293T)	also measured
Cc1[nH]c2ncc3cc2c1-c1cn(nc1C(F)(F)F)CCCC(=O)N(C)Cc1nn(C)c(C#N)c1-3	120	103	133	190	134	105	–	–
CN1Cc2nn(C)c(C#N)c2-c2cnc3[nH]cc(c3c2)-c2cn(nc2C(F)(F)F)CCCC1=O	–	–	–	–	–	–	Non-Toxic	IC50 [7]: 334 nM; AUC [8]: 23.6 ng·h/mL; clearance [9]: 167 mL/min/kg; Cmax [10]: 11.6 µM; AUC [11]: 504.9 ng·h/mL; half-life [12]: 0.3 h; half-life [13]: 2 h; F [14]: 1.1%; IC50 [15]: 354 nM
O=C(O)c1ccc2c(c1)nc(Nc1cccc(Cl)c1)c1ccncc12 [SILMITASERTIB]	127	80	201	871	137	103	Active	Activity (CAL-27 [16]): 53%; Activity (CAL-27 [17]): 85%; Activity (FaDu): 75%; Activity (CAL-27 [18]): 85%; Activity (CAL-27 [19]): 54%; inhibition [20]: Active; Activity (CAL-27 [21]): 139%; Activity (CAL-27 [22]): 80%; Activity (CAL-27 [23]): 103%; Activity (CAL-27 [24]): 150%; Activity (CAL-27 [25]): 150%
COc1c2c(nn1C)CN(C(C)C)C(=O)CCCn1cc(c(C(F)(F)F)n1)-c1c(C)[nH]c3ncc-2cc13	113	79	119	145	117	61	–	–
COc1c2c(nn1C)CN(C(C)C)C(=O)CCCn1cc(c(C(F)(F)F)n1)-c1c[nH]c3ncc-2cc13	110	130	140	538	112	84	–	–
CN1Cc2nn(C)cc2-c2cnc3[nH]cc(c3c2)-c2cnn(c2)CCCC1=O	–	–	–	–	–	–	–	IC50 [26]: 70 nM; IC50 [27]: 19 nM
